Test systems include MALME-3M melanoma; DLD-1 colon; SF-539 CNS; OVCAR-8 ovarian; RXF 393 renal; UACC-257 melanoma; LXFL 529 NSCLC; NCI-H460 lung; NCI-H522 lung; CCRF-CEM leukemia.
Test in all cases: NCI tumour cell line growth inhibition, 48 h

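96-well plates; 48 h exposure; 5 concentrations. Endpoints by linear interpolation between flanking doses. Not reached: highest tested concentration assigned. Abbreviation: GI50, concentration required for 50% inhibition of growth. TGI denotes the concentration required for complete inhibition of growth.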

Consider `C1C[OH+]CC[OH+]CCNCC[OH+]CC[OH+]CCN1.N.[Cl-].[Pt+4]`, for which the GI50 was 3.14 µM in the experiment with MALME-3M melanoma; 20.2 µM in the experiment on DLD-1 colon; 3.95 µM in the experiment on SF-539 CNS; 17 µM with OVCAR-8 ovarian; 2.49 µM in the experiment on RXF 393 renal; 3.19 µM in the experiment on UACC-257 melanoma. For the same compound, the GI50 in the experiment on LXFL 529 NSCLC is 18.2 µM; with NCI-H460 lung it was 1.81 µM; in the experiment on NCI-H522 lung, 12.9 µM; in the experiment with CCRF-CEM leukemia, 0.62 µM. Moreover, the TGI is 18.3 µM with MALME-3M melanoma; over 100 µM with DLD-1 colon; 19.6 µM with SF-539 CNS; over 100 µM with OVCAR-8 ovarian; 12.3 µM in the experiment with RXF 393 renal; 10.9 µM in the experiment on UACC-257 melanoma. The TGI was 64 µM in the experiment with LXFL 529 NSCLC, 63.9 µM in the experiment with NCI-H460 lung, 48.1 µM with NCI-H522 lung and over 100 µM in the experiment with CCRF-CEM leukemia.

With `CCCNC1=C(C(=O)OCC)C(=O)CO1`, the TGI with MALME-3M melanoma, in the experiment with DLD-1 colon, in the experiment with SF-539 CNS, with OVCAR-8 ovarian, with RXF 393 renal and in the experiment on UACC-257 melanoma was over 100 µM each time. The TGI in the experiment with LXFL 529 NSCLC, in the experiment with NCI-H460 lung and with CCRF-CEM leukemia was over 100 µM throughout.

For the compound `CCCCCCCCCCCC(=O)OCC1OC(n2cc(F)c(=O)[nH]c2=O)C(NC(=O)OCc2ccccc2)C(OC(=O)CCCCCCCCCCC)C1O` (stereo not given), the TGI in the experiment with MALME-3M melanoma, with DLD-1 colon, in the experiment on SF-539 CNS, with OVCAR-8 ovarian, in the experiment on RXF 393 renal and in the experiment on UACC-257 melanoma was over 100 µM throughout. In addition, the TGI in the experiment on LXFL 529 NSCLC, in the experiment with NCI-H460 lung, in the experiment on NCI-H522 lung and in the experiment with CCRF-CEM leukemia was over 100 µM in each case.

`O=[N+]([O-])C1C2C=CC(C2)[C@H]1c1ccco1` (stereo not given in full): the TGI with MALME-3M melanoma, in the experiment with DLD-1 colon, with SF-539 CNS, in the experiment on OVCAR-8 ovarian, in the experiment on RXF 393 renal and in the experiment on UACC-257 melanoma was over 100 µM in each case. Further, the TGI in the experiment with LXFL 529 NSCLC, with NCI-H460 lung, in the experiment with NCI-H522 lung and in the experiment on CCRF-CEM leukemia was over 100 µM throughout.

Turning to `O=C(CN1CCOCC1)Nc1nc(-c2ccc(Cl)cc2)cs1`, the TGI is 65.2 µM in the experiment with MALME-3M melanoma; over 100 µM with DLD-1 colon; over 100 µM in the experiment with SF-539 CNS; 72.2 µM in the experiment with OVCAR-8 ovarian; over 100 µM with NCI-H460 lung; 63.9 µM in the experiment on CCRF-CEM leukemia.

As for `Cc1ccc(C(=O)c2nnc(C(=O)c3ccc(C)cc3)nn2)cc1`, the TGI in the experiment with MALME-3M melanoma, with DLD-1 colon, in the experiment with SF-539 CNS, with OVCAR-8 ovarian, with UACC-257 melanoma and in the experiment with LXFL 529 NSCLC was over 100 µM in each case. Also, the TGI is 33.8 µM with NCI-H460 lung, over 100 µM in the experiment on NCI-H522 lung and 50.8 µM in the experiment with CCRF-CEM leukemia.

On to `NNC(=O)/C(=C/c1ccc(Cl)cc1Cl)NC(=O)c1ccccc1`, for which the TGI in the experiment with MALME-3M melanoma, in the experiment with DLD-1 colon, with SF-539 CNS, in the experiment with OVCAR-8 ovarian, with RXF 393 renal and in the experiment with UACC-257 melanoma was over 100 µM throughout. For the same compound, the TGI in the experiment with LXFL 529 NSCLC, in the experiment on NCI-H460 lung, with NCI-H522 lung and in the experiment on CCRF-CEM leukemia was over 100 µM each time.

For `CN(C)C(=O)OC(Cn1cncn1)c1ccc(Cl)cc1Cl` (stereo not given), the TGI in the experiment on MALME-3M melanoma, with DLD-1 colon, in the experiment with SF-539 CNS, with OVCAR-8 ovarian, in the experiment with RXF 393 renal and with UACC-257 melanoma was over 100 µM in each case. For the same compound, the TGI in the experiment with LXFL 529 NSCLC, with NCI-H460 lung and with NCI-H522 lung was over 100 µM each time.

As to `C#CCOCn1cnc2c(Cl)ncnc21`, the TGI in the experiment with MALME-3M melanoma, in the experiment with DLD-1 colon, in the experiment on SF-539 CNS, in the experiment with OVCAR-8 ovarian, with UACC-257 melanoma and in the experiment on LXFL 529 NSCLC was over 100 µM in each case. Also, the TGI in the experiment on NCI-H460 lung, in the experiment with NCI-H522 lung and in the experiment with CCRF-CEM leukemia was over 100 µM in each case.

With `COc1ccc(OC)c(NC(=O)C2=C(C)NC(C)=C(C(=O)Nc3cc(OC)ccc3OC)C2c2ccccc2)c1`, the TGI in the experiment with MALME-3M melanoma, in the experiment on DLD-1 colon, in the experiment with SF-539 CNS, with OVCAR-8 ovarian, in the experiment with RXF 393 renal and in the experiment on UACC-257 melanoma was over 100 µM throughout. Besides, the TGI with LXFL 529 NSCLC, with NCI-H460 lung, in the experiment on NCI-H522 lung and with CCRF-CEM leukemia was over 100 µM in each case.

Regarding `CC1C=C(OC(=O)c2ccccc2)C(=O)C(n2cc(F)c(=O)[nH]c2=O)O1` (stereo not given), the TGI in the experiment with MALME-3M melanoma, in the experiment on DLD-1 colon, in the experiment on SF-539 CNS, in the experiment on OVCAR-8 ovarian, with UACC-257 melanoma and with LXFL 529 NSCLC was over 100 µM throughout. Also, the TGI in the experiment on NCI-H460 lung, in the experiment with NCI-H522 lung and with CCRF-CEM leukemia was over 100 µM throughout.

Take `C/C(=N\NS(=O)(=O)c1ccccc1)c1ccc(Cl)c(Cl)c1`: the TGI in the experiment with MALME-3M melanoma, in the experiment with DLD-1 colon, in the experiment with SF-539 CNS, in the experiment with OVCAR-8 ovarian, in the experiment on RXF 393 renal and in the experiment on UACC-257 melanoma was over 100 µM throughout. Moreover, the TGI in the experiment with LXFL 529 NSCLC, with NCI-H460 lung and in the experiment with CCRF-CEM leukemia was over 100 µM in each case.

On to `Cc1ccc(NC(=O)C(=O)C(C#N)c2ccccc2C)cc1C` (stereo not given), for which the TGI in the experiment on MALME-3M melanoma, in the experiment with DLD-1 colon, in the experiment with SF-539 CNS, in the experiment with OVCAR-8 ovarian, with RXF 393 renal and in the experiment with UACC-257 melanoma was over 100 µM in each case. Moreover, the TGI in the experiment with LXFL 529 NSCLC was over 100 µM; in the experiment with NCI-H460 lung, over 79.9 µM; in the experiment with NCI-H522 lung it was over 100 µM; with CCRF-CEM leukemia it was over 100 µM.

The record behind these values is PubChem BioAssay (NCI).
